Measured values: patent publication US4303640A, “Oil-in-water organophosphorus insecticidal emulsion” (priority 1979, dated 1981)
≈ marks a conversion by molar mass, not a printed value.

How the values were obtained:
physchem = details: water
[1] = size of emulsified particles of the active ingredient (microscope); format: physicochemical; details: oil-in-water emulsion, as prepared
Description: A brief description of the method of producing the oil-in-water insecticidal emulsion of this invention will be given below. First, an insecticidally active liquid ingredient of the organophosphorus compound is added to a 2 to 20 wt% aqueous solution of polyvinyl alcohol or gum arabic, and a conventonal stirrer such as a T.K. Homomixer (a homogenizer manufactured by Tokushu Kika Kogyo Co., Ltd.) or a Shinagawa All-Purpose Mixer (a mixer manufactured by San-Ei-Seisakusho, Ltd.) is used to disperse the particles of the active ingredient (A.I.), generally at ambient temperature or, if necessary, at an elevated temperature (about 40° to 80° C.). The size of the emulsified particles of the active ingredient can be varied wihtin the range of from about 1 to 200μ depending upon the stirring force or the content of polyvinyl alcohol or gum arabic. A microscope is used to check the size of the emulsified particles of the active ingredient. Finally, for the purpose of preventing settling of the emulsified particles and improving the dispersion stability, an aqueous solution of a thickener is added to the emulsion in a suitable amount. The resulting oil-in-water insecticidal emulsion remains stable for an extended period. […]

Row | Compound | water-solubility at 10° C. | solubility (physchem) [µg/mL] | Particle Size of emulsified active ingredient [1] [μ]
1 | COP(=O)(Cc1cccc(C#N)c1)OC | ca. 6,000 ppm | ~6000 (≈ 26600 µM) | 
2 | COP(=S)(OC)Oc1ccc([N+](=O)[O-])c(C)c1 [Compound (1), O,O-dimethyl O-(3-methyl-4-nitrophenyl)phosphorothioate] |  | 5 (≈ 18 µM) | 1 to 30
3 | CCOC(=O)CC(SP(=S)(OC)OC)C(=O)OCC (stereo not drawn) [Compound (2), O,O-dimethyl S-[1,2-di-(ethoxycarbonyl)ethyl]-phosphorodithioate] |  | 145 (≈ 439 µM) | 
4 | COP(=S)(OC)Oc1ccc(C#N)cc1 [Compound (3), O,O-dimethyl O-(4-cyanophenyl)phosphorothioate] |  | 28 (≈ 115 µM) | 1 to 50
5 | CCOC(=O)C(SP(=S)(OC)OC)c1ccccc1 (stereo not drawn) [Compound (4), O,O-dimethyl S-[α-(ethoxycarbonyl)benzyl]-phosphorodithioate] |  | 4 (≈ 12.5 µM) | 
